# Experimental data published in patent US20060019934A1, “Anti-HIV-1 activity of betulinol derivatives” (priority 2004, published 2006).
# Like-named read-outs stand apart in the source and are kept apart here.
# How the values were obtained:
# [1] = Hashimoto et al. 1997; cited from earlier work
# HIV-1 IIIB isolate = assay: HIV-1 p24 antigen capture ELISA, acutely infected 174XCEM cells; format: cell-based; conditions: for anti-HIV-1 activity compared with other betulinol derivatives: 1 μg/ml, p24 OD, FIG. 1
# Excerpt: The assay methods described herein are known in the art, and are described in detail, for example, in Crombie et al., J. Exp. Med. 187:25-35 (1998), which is hereby incorporated by reference in its entirety.
# Cultures were maintained in culture medium (RPMI-1640+10% fetal bovine serum (“FBS”)) for 4 days, the culture supernatants were then collected, lysed with Triton®-X 100 surfactant, and HIV-1 gag (p24) antigen activity assessed by a standard technique, the Antigen Capture ELISA (enzyme-linked immunosorbent assay) (Roche-NEN).
# Data are presented in optical density (“OD”) units, which are linear with ng/ml of p24 Ag from 0.15 to 1.5 OD, and can be converted to pg/ml of HIV-1 antigen using a standard curve.
# 174XCEM cells = assay: Cell viability by trypan blue dye exclusion; conditions: for effect on total cell number or cell viability: trypan blue dye exclusion at four days and seven days
# Protocol: Human T-B hybridoma cell line 174XCEM was exposed to a low multiplicity of infection (“MOI”) (MOI=1.0) of stock HIV-1 IIIB isolate for 2 hours at 37° C., washed ×3 with phosphate buffered saline (“PBS”), then plated at 250,000 cells/well in the presence of various agents, shown in Table 2. Dimethyl sulfoxide (“DMSO”) buffer was used as a “no virus” control. A commercially available synthetic peptide, thrombospondin peptide (“TSP”), known as having HIV-1 inhibitory activity, was used as an “inhibitory activity” control. Two HIV isolates were used, a patient isolate (“child HIV”), and the standard CXCR4 co-receptor utilizing isolate IIIB.
# The cell samples were assessed by trypan blue dye exclusion at four days and seven days.
# another HIV-1 isolate = assay: Effect on 174XCEM cells chronically infected with another HIV-1 isolate; format: cell-based
# Protocol: Agents were also evaluated for an effect on 174XCEM cells chronically infected with another HIV-1 isolate.
# [2] = system: carcinoma cell line CO-115 of the large intestine; conditions: CO-115 cells; cited from earlier work
# [3] = varying doses up to 2 μg/ml, FIG. 3-5
# [4] = chronically infected 174XCEM cells, single dose 1 μg/ml
# [5] = 174XCEM cells, HIV-1 IIIB, agents 1 μg/ml, p24 at 4 days, FIG. 2
molecule,measurement,setting,value
C=C(C)[C@@H]1CC[C@]2(C(=O)O)CC[C@]3(C)[C@H](CC[C@@H]4[C@@]5(C)CCC(=O)C(C)(C)[C@@H]5CC[C@]43C)[C@@H]12 [betulonic acid],"cytotoxicity, interfering with the proliferation of cells",[1],cytotoxic
C=C(C)[C@@H]1CC[C@]2(COC(C)=O)CC[C@]3(C)[C@H](CC[C@@H]4[C@@]5(C)CC[C@H](O)C(C)(C)[C@@H]5CC[C@]43C)[C@@H]12 [28-acetoxy betulin],anti-HIV-1 activity compared with other betulinol derivatives,HIV-1 IIIB isolate,superior
same,dose-related anti-HIV effect,HIV-1 IIIB isolate; [3],comparable anti-HIV-1 activity
same,effect on total cell number or cell viability,174XCEM cells,no effect
C=C(C)C1CCC2(C=O)CC[C@]3(C)[C@H](CC[C@@H]4[C@@]5(C)CCC(=O)C(C)(C)[C@@H]5CC[C@]43C)C12 (stereo partly shown) [betulone aldehyde],inhibition in chronically infected cells,another HIV-1 isolate; [4],minimal effect
same,inhibition (anti-HIV-1 effect),HIV-1 IIIB isolate; [5],37%
same,dose-related anti-HIV effect,HIV-1 IIIB isolate; [3],Progressive increases in anti-HIV effect
C=C(C)[C@@H]1CC[C@]2(CO)CC[C@]3(C)[C@H](CC[C@@H]4[C@@]5(C)CC[C@H](OC(C)=O)C(C)(C)[C@@H]5CC[C@]43C)[C@@H]12 [3-acetoxy betulin],anti-HIV-1 activity compared with other betulinol derivatives,HIV-1 IIIB isolate,superior
same,effect on total cell number or cell viability,174XCEM cells,no effect
C=C(C)[C@@H]1CC[C@]2(COC(C)=O)CC[C@]3(C)[C@H](CC[C@@H]4[C@@]5(C)CC[C@H](OC(C)=O)C(C)(C)[C@@H]5CC[C@]43C)[C@@H]12 [betulin diacetate],inhibition in chronically infected cells,another HIV-1 isolate,20%
same,dose-related anti-HIV effect,HIV-1 IIIB isolate,Progressive increases in anti-HIV effect
same,inhibition (anti-HIV-1 effect),HIV-1 IIIB isolate,57%
same,cell toxicity,"174XCEM cells; doses of 0.5, 1.5, and 2 μg/ml",without cell toxicity
"C=C(C)C1CCC2(CO)CC[C@]3(C)[C@H](CC[C@@H]4[C@@]5(C)CCC(O)C(C)(C)[C@@H]5CC[C@]43C)C12 (stereo partly drawn) [betulinol, lup-20(29)-ene-3β, 28-diol]",inhibition in chronically infected cells,another HIV-1 isolate; [4],minimal effect
same,inhibition (anti-HIV-1 effect),HIV-1 IIIB isolate; [5],no effect
same,dose-related anti-HIV effect,HIV-1 IIIB isolate; [3],increasing anti-HIV effect
betulin dimethyl ether,anti-HIV-1 activity compared with other betulinol derivatives,HIV-1 IIIB isolate,superior
same,effect on total cell number or cell viability,174XCEM cells,no effect
C=C(C)[C@@H]1CC[C@]2(C(=O)O)CC[C@]3(C)[C@H](CC[C@@H]4[C@@]5(C)CC[C@H](O)C(C)(C)[C@@H]5CC[C@]43C)[C@@H]12 [betulinic acid],LD 50,[2],0.375 mg/mL
